Among the data in ChEMBL document CHEMBL1201862, “PubChem BioAssay data set” (2004) are AC50, IC50 and EC50 values, retold here.

Targets include Cytochrome P450 2C9 (Homo sapiens, UniProt P11712); Cytochrome P450 2D6 (Homo sapiens, UniProt P10635); Cytochrome P450 3A4 (Homo sapiens, UniProt P08684).
The target of another test is T1, Cytochrome P450 1A2 (Homo sapiens, UniProt P05177).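 Also: PubChem cytochrome P450 panel assay, CYP1A2 panel member.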
T1 sequence (P05177 whole entry): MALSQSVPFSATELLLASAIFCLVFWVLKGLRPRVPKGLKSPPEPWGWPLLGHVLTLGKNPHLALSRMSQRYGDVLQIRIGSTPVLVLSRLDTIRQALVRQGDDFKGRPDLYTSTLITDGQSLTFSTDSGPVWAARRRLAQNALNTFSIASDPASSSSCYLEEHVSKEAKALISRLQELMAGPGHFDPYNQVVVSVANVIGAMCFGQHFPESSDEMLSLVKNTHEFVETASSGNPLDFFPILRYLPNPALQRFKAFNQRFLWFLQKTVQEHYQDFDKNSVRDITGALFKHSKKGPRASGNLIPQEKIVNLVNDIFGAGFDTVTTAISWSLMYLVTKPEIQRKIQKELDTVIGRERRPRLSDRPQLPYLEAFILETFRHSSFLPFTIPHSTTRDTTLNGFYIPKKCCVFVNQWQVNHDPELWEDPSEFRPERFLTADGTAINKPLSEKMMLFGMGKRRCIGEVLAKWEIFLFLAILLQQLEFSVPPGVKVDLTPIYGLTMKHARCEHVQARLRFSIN

The next test deals with T2, Leucine aminopeptidase (Plasmodium falciparum 3D7, UniProt Q8IL11).
T2 sequence (Q8IL11 whole entry): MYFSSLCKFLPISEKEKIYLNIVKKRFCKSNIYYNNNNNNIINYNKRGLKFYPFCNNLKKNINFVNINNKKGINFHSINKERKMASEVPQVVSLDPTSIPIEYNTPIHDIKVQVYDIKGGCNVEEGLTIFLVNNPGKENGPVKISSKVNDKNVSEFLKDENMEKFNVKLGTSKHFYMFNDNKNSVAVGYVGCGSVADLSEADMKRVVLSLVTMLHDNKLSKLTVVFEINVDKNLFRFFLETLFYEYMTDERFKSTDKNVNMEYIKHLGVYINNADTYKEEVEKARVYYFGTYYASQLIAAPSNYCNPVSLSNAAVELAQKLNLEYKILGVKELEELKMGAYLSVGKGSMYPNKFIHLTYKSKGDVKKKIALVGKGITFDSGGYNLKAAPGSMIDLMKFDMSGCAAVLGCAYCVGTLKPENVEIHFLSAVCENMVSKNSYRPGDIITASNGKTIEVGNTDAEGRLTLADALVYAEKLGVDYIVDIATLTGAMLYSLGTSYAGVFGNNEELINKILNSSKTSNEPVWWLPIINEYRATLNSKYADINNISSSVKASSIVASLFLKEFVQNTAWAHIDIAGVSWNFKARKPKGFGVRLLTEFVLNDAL
The test is described as follows: P. falciparum M17LAP inhibitors, primary screen, biochemical, fluorogenic H-Leu-NHMec substrate, 1536-well (AID 1619). The format is functional.

The target in test [1] is T3, Replicative DNA helicase DnaB (Mycobacterium tuberculosis, UniProt P9WMR3).
T3 sequence (P9WMR3 whole entry): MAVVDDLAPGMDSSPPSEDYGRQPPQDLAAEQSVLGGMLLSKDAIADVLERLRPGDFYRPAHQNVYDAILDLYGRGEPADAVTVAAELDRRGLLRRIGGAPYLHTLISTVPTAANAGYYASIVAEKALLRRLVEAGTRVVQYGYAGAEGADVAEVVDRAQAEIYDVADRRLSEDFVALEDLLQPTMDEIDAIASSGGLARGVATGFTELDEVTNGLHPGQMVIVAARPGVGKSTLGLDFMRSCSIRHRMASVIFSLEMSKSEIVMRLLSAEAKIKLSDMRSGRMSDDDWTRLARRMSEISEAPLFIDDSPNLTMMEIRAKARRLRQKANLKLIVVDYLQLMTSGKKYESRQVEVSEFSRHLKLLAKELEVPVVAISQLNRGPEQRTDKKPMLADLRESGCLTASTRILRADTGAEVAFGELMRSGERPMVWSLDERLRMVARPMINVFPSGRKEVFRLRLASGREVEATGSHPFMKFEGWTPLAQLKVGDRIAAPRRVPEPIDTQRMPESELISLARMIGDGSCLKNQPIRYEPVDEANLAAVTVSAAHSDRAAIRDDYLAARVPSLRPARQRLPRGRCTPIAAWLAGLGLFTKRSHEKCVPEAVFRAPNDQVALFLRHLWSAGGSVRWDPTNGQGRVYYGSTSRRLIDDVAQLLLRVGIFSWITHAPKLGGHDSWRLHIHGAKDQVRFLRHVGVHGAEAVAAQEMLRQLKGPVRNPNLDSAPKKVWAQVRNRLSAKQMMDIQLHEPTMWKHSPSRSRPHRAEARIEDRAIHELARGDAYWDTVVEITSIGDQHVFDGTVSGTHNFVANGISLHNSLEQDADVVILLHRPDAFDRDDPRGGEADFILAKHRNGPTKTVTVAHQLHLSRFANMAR
The test is described as follows: DnaB intein splicing inhibitors, dose response, biochemical, cell-free fluorescence (AID 449749). The format is functional.

A further test addresses T4, Protein RecA (Mycobacterium tuberculosis, UniProt P9WHJ3).
T4 sequence (P9WHJ3 whole entry): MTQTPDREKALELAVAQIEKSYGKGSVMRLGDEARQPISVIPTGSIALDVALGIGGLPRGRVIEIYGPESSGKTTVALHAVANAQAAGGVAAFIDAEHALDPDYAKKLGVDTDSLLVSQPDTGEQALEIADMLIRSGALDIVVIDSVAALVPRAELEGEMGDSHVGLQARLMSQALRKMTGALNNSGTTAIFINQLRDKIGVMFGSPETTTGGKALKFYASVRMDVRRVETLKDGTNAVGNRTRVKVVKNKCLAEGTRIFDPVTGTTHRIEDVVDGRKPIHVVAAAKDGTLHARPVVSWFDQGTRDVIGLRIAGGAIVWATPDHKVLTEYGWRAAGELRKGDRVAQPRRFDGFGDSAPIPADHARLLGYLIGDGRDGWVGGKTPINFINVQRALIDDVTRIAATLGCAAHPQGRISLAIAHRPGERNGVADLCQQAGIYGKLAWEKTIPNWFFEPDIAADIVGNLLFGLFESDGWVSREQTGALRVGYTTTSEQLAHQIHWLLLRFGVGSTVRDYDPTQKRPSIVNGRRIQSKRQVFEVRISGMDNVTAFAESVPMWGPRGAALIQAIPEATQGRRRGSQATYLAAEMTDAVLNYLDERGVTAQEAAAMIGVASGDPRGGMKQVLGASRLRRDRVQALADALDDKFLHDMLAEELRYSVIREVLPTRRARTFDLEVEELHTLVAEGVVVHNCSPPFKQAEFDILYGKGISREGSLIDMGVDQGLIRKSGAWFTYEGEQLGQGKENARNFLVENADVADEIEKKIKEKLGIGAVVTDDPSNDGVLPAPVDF
The test is described as follows: Fluorescence Cell-Free Homogeneous Dose Retest to Identify Inhibitors of RecA-Intein Splicing Activity. [Related pubchem assays (depositor defined):AID2097, AID2223, AID489010, AID492950]. The format is functional.

The target in the next test is Cytochrome P450 2C19 (Homo sapiens, UniProt P33261). Briefly: Cytochrome panel assay with activity outcomes. Panel member name: p450-cyp2c19 Compounds with AC50 equal or less than 10 uM are considered active. Format: functional. Particulars: read-out: AC50.
The subject of the next test is Streptococcus. The test is described as follows: Group A Streptococcus viability loss, dose response, counter-screen for streptokinase expression inhibitor project, luminescence, BacTiterGlo (AID 1915).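 Also: potency for reduction of bacterial viability or growth.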 The format is functional, organism-based. Background: The purpose of a counterscreen is to sort out artefacts and off-target activity.
Test [2] has as its system Streptococcus sp. 'group A'. The test is described as follows: growth inhibition of control SK(-) GAS strain, dose response, counter-screen for streptokinase expression inhibitor project, luminescence, kanamycin, BacTiterGlo, confirmation (AID 1900). The format is functional, organism-based.
A short description of test [3]: Luminescence Cell-Based Dose Response HTS to Identify Activators of Luciferase Translation or Activity in H4 […] Cells. [Related pubchem assays: 1829 (Project Summary), 1814 (Primary HTS)]. The format is functional.
Test [4] can be described thus: Luminescence Cell-Based Dose Confirmation HTS to Identify Activators of 5'UTR Stem-Loop Driven Alpha-Synuclein mRNA Translation in H4 Neuroglioblastoma Cells. [Related pubchem assays: 1829 (Project Summary), 1814 (Primary HTS)]. Format: functional.
The test system of another test is H4. The test is described as follows: Luminescence Cell-Based Dose Response HTS to Identify Activators of 5'UTR Stem-Loop Driven Prion Protein mRNA Translation in H4 Neuroglioblastoma Cells. [Related pubchem assays: 1829 (Project Summary), 1814 (Primary HTS)]. The note with it: Homo sapiens. Format: functional.
The target in another test is T5, Streptokinase A (Streptococcus pyogenes serotype M1, UniProt P10520).
T5 sequence (P10520 whole entry): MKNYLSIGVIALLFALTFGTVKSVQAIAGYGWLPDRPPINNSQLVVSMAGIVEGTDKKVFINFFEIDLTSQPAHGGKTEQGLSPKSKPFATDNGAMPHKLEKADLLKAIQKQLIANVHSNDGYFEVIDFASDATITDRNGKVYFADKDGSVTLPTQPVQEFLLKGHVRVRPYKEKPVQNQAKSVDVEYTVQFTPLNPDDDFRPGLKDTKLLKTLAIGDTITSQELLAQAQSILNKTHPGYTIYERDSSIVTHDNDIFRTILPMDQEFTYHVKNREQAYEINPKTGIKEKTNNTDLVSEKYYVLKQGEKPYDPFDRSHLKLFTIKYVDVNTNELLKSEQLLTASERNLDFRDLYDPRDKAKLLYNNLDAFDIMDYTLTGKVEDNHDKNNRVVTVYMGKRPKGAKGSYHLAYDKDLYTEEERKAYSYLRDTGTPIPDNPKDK
Briefly: S. pyogenes streptokinase expression inhibitors, potency, dose response, plasminogen activation absorbance, OD405 (AID 1914).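 Also: secreted streptokinase activity via plasminogen activation per viability signal from cell pellet.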 The format is functional, Streptococcus pyogenes M1 GAS.

Test [5] in a line: cytotoxicity toward NIH3T3 fibroblasts, dose response, counter-screen, cell-based, ATP luminescence, mouse fibroblasts (AID 2010).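 Also: cells exposed to compound for about 90 hours before reading.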 The format is functional.
Test [6] is described as follows: inhibitors of intracellular T. cruzi replication, confirmation, NIH3T3 host cells, beta-gal luminescence (AID 2044).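 Also: intracellular parasites grown in NIH/3T3 mouse fibroblasts as host cells; luminescent beta-galactosidase reporter signal from transgenic T. cruzi replicating inside host cells; inhibitors lower the luminescence signal.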 The format is functional, cell-based.

Activity calls are given as the source filed them. Some results are limits rather than exact numbers.

Cytochrome P450 2C9, sequence (P11712 whole entry): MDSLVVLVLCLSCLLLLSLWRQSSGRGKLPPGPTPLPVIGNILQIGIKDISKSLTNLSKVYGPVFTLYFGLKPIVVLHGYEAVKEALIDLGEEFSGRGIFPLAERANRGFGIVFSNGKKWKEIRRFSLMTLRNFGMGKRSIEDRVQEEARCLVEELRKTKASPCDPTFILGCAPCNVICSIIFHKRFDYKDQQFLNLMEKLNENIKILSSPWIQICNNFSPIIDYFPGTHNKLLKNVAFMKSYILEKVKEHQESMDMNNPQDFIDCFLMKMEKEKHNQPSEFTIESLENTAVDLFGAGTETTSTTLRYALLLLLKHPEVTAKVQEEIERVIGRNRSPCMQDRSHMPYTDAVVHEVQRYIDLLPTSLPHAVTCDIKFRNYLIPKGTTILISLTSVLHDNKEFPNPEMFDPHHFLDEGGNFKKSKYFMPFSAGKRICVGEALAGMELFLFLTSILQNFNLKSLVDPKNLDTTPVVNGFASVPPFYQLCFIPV
Cytochrome P450 2D6, sequence (P10635 whole entry): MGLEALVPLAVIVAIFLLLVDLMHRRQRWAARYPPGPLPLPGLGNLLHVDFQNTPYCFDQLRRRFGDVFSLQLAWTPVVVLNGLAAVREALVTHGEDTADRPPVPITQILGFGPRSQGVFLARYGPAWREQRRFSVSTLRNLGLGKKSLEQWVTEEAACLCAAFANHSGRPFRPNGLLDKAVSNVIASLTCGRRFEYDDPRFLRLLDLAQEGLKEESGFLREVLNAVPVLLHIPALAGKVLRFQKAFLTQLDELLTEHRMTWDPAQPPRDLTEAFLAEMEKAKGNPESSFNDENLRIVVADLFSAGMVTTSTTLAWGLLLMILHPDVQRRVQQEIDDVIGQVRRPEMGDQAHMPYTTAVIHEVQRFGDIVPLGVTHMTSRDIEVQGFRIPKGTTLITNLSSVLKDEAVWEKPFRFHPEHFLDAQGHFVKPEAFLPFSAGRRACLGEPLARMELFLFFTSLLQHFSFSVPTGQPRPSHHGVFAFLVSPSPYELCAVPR
Cytochrome P450 2C19, sequence (P33261 whole entry): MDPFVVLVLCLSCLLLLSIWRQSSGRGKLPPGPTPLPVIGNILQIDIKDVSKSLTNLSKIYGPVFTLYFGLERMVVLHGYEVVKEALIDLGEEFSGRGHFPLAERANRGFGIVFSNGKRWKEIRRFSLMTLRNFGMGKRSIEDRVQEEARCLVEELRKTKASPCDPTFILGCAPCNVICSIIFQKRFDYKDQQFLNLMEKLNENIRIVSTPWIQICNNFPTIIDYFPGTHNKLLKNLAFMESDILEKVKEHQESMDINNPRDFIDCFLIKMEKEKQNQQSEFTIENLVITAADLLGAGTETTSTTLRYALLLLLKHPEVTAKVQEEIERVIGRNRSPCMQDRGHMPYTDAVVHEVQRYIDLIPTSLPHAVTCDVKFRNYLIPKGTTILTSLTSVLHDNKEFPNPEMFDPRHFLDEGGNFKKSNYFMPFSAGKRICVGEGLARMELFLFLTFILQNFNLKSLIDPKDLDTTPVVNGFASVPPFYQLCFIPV
Cytochrome P450 3A4, sequence (P08684 whole entry): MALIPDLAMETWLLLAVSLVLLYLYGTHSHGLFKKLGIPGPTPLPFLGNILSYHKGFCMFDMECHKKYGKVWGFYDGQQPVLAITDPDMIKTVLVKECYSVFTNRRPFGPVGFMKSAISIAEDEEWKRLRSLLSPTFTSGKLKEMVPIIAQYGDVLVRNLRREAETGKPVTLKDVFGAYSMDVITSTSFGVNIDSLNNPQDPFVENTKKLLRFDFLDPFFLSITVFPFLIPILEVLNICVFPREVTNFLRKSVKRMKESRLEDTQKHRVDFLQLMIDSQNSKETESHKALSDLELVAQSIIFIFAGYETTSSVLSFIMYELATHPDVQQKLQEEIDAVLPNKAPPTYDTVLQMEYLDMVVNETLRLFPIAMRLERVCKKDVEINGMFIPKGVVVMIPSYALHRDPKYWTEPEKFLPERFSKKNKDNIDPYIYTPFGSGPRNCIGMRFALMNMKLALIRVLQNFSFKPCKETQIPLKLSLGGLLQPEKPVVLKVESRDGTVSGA

Broadly, the AC50 is the concentration at which the activity in the assay is half-maximal. In the case of `O=C(NCCN1CCN(Cc2ccccc2)CC1)C1CC(=O)N(C2CCCC2)C1` (stereo unspecified), the AC50 at Cytochrome P450 2C9 is 0.398 µM (inconclusive); on Cytochrome P450 2D6 it was 14.1 µM (inconclusive).
For `CCc1nc(SCC(=O)N2CCCc3ccccc32)c2oc3ccccc3c2n1`, in that order: 4.47 µM (inconclusive) and 20 µM (inconclusive).
Regarding `O=C(O)/C=C\c1ccc(O)c(O)c1`, the AC50 on Cytochrome P450 2C9 was 15.8 µM (inconclusive).
`CCOC(=O)c1cnc(-n2nc(C)cc2C)nc1NCCO`: the AC50 at Cytochrome P450 1A2 is 14.1 µM (inconclusive); on Cytochrome P450 2C9 it was 20 µM (inconclusive); at Cytochrome P450 3A4 it was 25.1 µM (inconclusive).
A word on the IC50: it is the point on the concentration scale where inhibition reaches its midpoint. As a reminder, the EC50 is the concentration giving half of the maximal effect. Regarding `COC(=O)c1c(NC(=O)/C=C/C(=O)O)sc(C)c1-c1ccc(C)c(C)c1`, the IC50 on Leucine aminopeptidase was 35.6 µM (active). Moreover, the AC50 in [1] was 15.1 µM (active). The EC50 on Protein RecA is 5.69 µM (active).
As for `Cc1cccc(C)c1NC(=O)CSc1nc(C)c(CC(=O)c2ccc(Br)cc2)c(C)c1C#N`, the AC50 is 35.5 µM (inconclusive) on Cytochrome P450 2C19 and 1.12 µM (inconclusive) on Cytochrome P450 2C9.
For `O=C(Nc1nnc(C2CCCCC2)s1)c1ccc(Br)s1`, the EC50 is > 150 µM (not active) in the test with Streptococcus; 6.45 µM (active) in [2]; 65.3 µM (active) in [3]; 11.6 µM (active) in [4]; 81.8 µM (active) with H4; > 150 µM (not active) on Streptokinase A.
Regarding `CN(C(=O)c1ccc(OC2CCN(CCc3ccccc3)CC2)cc1)C1CCCCC1`, the EC50 in [3] is 18.5 µM (active); in [4], 13.3 µM (active); in the test with H4, > 120 µM (not active).
As to `Cc1ccc2[nH]c(C3CCCN(C(S)=Nc4ccccc4C)C3)nc2c1` (stereo unspecified), the half-maximal activity concentration (AC50) on Cytochrome P450 2C19 was 1.41 µM (inconclusive); at Cytochrome P450 2C9, 3.16 µM (inconclusive). For the same molecule, the EC50 is > 60 µM (not active) in test [5] and 0.443 µM (active) in test [6].
In the case of `COc1ccc2[nH]cc(C(=O)CN3CCC(C)CC3)c2c1`, the EC50 in test [3] is 17.6 µM (active); in [4], 5.71 µM (active); with H4, 14.4 µM (active).
The like results for `Cn1c(CCNC(=O)c2cccs2)nnc1SCC(=O)Nc1nc(-c2ccccc2)cs1` were, in that order, 24.5 µM (active), > 120 µM (not active) and 27.3 µM (active).
`COc1ccc(C(=O)N/N=C2/C(=O)c3c(C)cc(C)cc3CC2(C)C)cc1`: the AC50 at Cytochrome P450 1A2 is 5.01 µM (inconclusive); on Cytochrome P450 2C9, 6.31 µM (inconclusive).
As for `O=C(Nc1c(C(=O)Nc2ccc3c(c2)OCCO3)cnn1-c1ccccc1Cl)c1ccco1`, the EC50 in test [3] is 20.5 µM (active); in [4], 20 µM (active); in the test with H4, > 120 µM (not active).
On to `C/N=C(\c1ccc(C)cc1)n1c(=S)nc(-c2ccc(C)cc2)n(C)c1=S`, for which the EC50 was 15.4 µM (active) in [3], > 120 µM (not active) in [4] and 21.3 µM (active) with H4.
Turning to `Cc1ccc2nc(NC(=O)COC(=O)c3ccncc3)sc2c1`, the EC50 is > 120 µM (not active) in test [3], > 120 µM (not active) in test [4] and 11.4 µM (active) in the test on H4.
Regarding `Cc1ccc(-c2nc(N3CCOCC3)s[n+]2-c2ccccc2)cc1.[O-][Cl+3]([O-])([O-])[O-]`, the EC50 in test [3] is 7.52 µM (active); in test [4] it was 7.82 µM (active); with H4, 31.5 µM (active).
